The nature of this data set: gradient 5% acetonitrile 3 min, to 50% in 2 min, to 85% in 15 min, held 3 min, 100 µL/min. As to conditions: column: Zorbax Extend-C18 2.1 x 50 mm; eluents: water / acetonitrile, 0.1% formic acid. A digest of the protocol: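 Pure standards were analyzed in mixtures of ~100 molecules using HPLC coupled to a quadrupole time-of-flight mass spectrometer, in both positive and negative ionization mode. Separation used a Zorbax Extend-C18 column (2.1 × 50 mm, 1.8 μm) at 100 μL/min, with water and acetonitrile each containing 0.1% formic acid. Dead and dwell volumes were 40 μL and 900 μL, and data were collected over 3 months. Retention time was read from computationally picked adduct peaks, each inspected manually.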
As for `O=C(c1cc(-c2ccc(F)cc2)c[nH]1)N1CCc2ccccc21`, the RP-LC retention time worked out at 1000 s. Then `CCn1cc(-c2nc(C(=O)NCc3cccc(C)c3)cs2)c2cccnc21`, with 1060 s; and `Cc1cc2c(cc1S(=O)(=O)N1CCCC1C(=O)Nc1ccc3c(c1)OCO3)OCC(=O)N2` (centres undefined), with 720 s; and `Cc1ccc(C)c(NC(=O)C2CCN(S(=O)(=O)c3cc(C(=O)N4CCCC4)n(C)c3)CC2)c1`, with 747 s. Then `Cc1ccc(-c2nnc(Cc3nc(-c4ccc(F)cc4)no3)o2)cc1`, with 1050 s; and `COc1cc(OC)cc(C(=O)N2CCC(c3cc(N)on3)CC2)c1`, with 677 s. Then `Cc1ccccc1-c1nnc(CSc2nnc(NC(=O)CC3CCCCC3)s2)o1`, with 1080 s; and `CC(C)NC(=O)CN1CCN(c2cc(C(=O)O)c3cc(NC(=O)c4ccccc4F)ccc3n2)CC1`, with 594 s; and `Cc1ccc(C(=O)N2C[C@@H]3C[C@H](NS(C)(=O)=O)[C@H]2C3)cc1F`, with 671 s.

For the molecule `O=C1CCCCC(CNC(=O)c2cccs2)N1` (centres undefined), the RP-LC retention time worked out at 616 s. The figure for `CCn1c(=O)c(N2CCN(C(=O)NCc3ccc(C)cc3)CC2)nc2ccccc21` is 927 s. The figure for `O=C(CSc1ccc(NC(=O)c2cccs2)nn1)Nc1ccccc1C(F)(F)F` is 842 s. Molecule `COc1cccc2cc(C(=O)Nc3nc(-c4ccccc4)cs3)c(=O)oc12` yielded an RP-LC retention time of 1180 s. Then `CCOc1ccc(NC(=O)c2oc3cc(C)c(Cl)cc3c2C)c2cccnc12`, with 893 s. Then `O=C(CCn1cnc2cc(-c3noc(-c4ccc(Cl)cc4)n3)ccc21)N1CCOCC1`, with 754 s; and `COc1cc(NC(=O)Cn2nc(N3CCC(C)CC3)c3ccccc3c2=O)cc(OC)c1`, with 1110 s; and `CN(C)CCNC(=O)c1cccc2[nH]c(-c3ccncc3)nc12`, with 556 s. The figure for `O=C(Nc1c(-c2ccc(F)cc2)nc2ccccn12)c1cccc(F)c1` is 674 s. `COCC(=O)N1CCc2c(sc3ncnc(N4CCOCC4)c23)C1` came in with an RP-LC retention time of 623 s. The figure for `CC(C)NC(=O)CCC(=O)N1CCc2c(c(C(=O)N3CCCCC3)nn2C)C1` is 617 s; for `CN1CCCn2cc(S(=O)(=O)Nc3ccc(Cl)cc3)cc2C1=O` it is 714 s; for `O=C1c2cccc3cccc(c23)C(=O)N1c1cccnc1` it is 631 s. Then `Cc1cccc2nc(-c3ccc(Cl)cc3)c(Nc3ccc4c(c3)OCCO4)n12`, with 701 s; and `CCN1CCCC1CN(CC(=O)N1CCNCC1)S(=O)(=O)c1ccc(Br)cc1` (centres undefined), with 583 s; and `CNC(=O)C1CCN(Cc2cc3ccccc3n2Cc2ccc(Cl)cc2)CC1`, with 708 s.

`Cc1ccc(-n2ccnc(NC(=O)Nc3ccc(F)cc3)c2=O)cc1C` displayed an RP-LC retention time of 1030 s.

With `Cc1cccc(NS(=O)(=O)c2cc3n(c2)CCN(CC(C)C)C3=O)c1`, the RP-LC retention time is 808 s. Then `Cc1ccc(-c2noc(-c3cccc(S(=O)(=O)Nc4ccc(C#N)cc4)c3)n2)cc1`, with 1140 s; and `O=C(Cc1nnc(-c2ccc3ncccc3c2)o1)Nc1cccc(C(F)(F)F)c1`, with 802 s; and `CCNC(=O)C1CCCN(C(=O)Nc2ccc(NC(=O)Nc3ccc(C)cc3C)cc2)C1` (centres undefined), with 730 s. Then `COc1ccc(NC(=O)C2CCCN(c3nccnc3Oc3ccccc3)C2)cc1Cl` (centres undefined), with 1050 s; and `CN1CCC2(CC1)CN(C(=O)CCc1nc3ccccc3s1)Cc1ccccc1O2`, with 671 s. `COc1ccc(C(=O)CSc2nnc3sc4ccccc4n23)cc1OC` gave an RP-LC retention time of 768 s. The figure for `COc1ccc2nc(N3CCC(C(=O)N4CCN(c5ccccn5)CC4)CC3)sc2c1` is 578 s; for `CC(Cc1ccco1)NC(=O)Cn1cccc1-c1nnc(-c2ccccc2)o1` (centres undefined) it is 898 s.

With `Cc1ccccc1Nc1c(-c2cccc(Br)c2)nc2cccc(C)n12`, the RP-LC retention time is 833 s. Then `COCCNC(=O)C1CCN(C(=O)c2ncn3c2COC(c2ccc(F)cc2)C3)CC1` (centres undefined), with 645 s.

The molecule `Cc1ccc(NC(=O)Nc2cccn3ncnc23)cc1` came in with an RP-LC retention time of 776 s. The figure for `CCN1C(=O)C2CCCN2C(=O)c2ccccc21` (centres undefined) is 639 s. The figure for `Cc1ccc(CNC(=O)N2C[C@@H](F)C[C@H]2C(=O)N2CCc3ccccc3C2)cc1` is 887 s; for `COc1ccc(CCNC(=O)C2CCN(S(C)(=O)=O)c3cc(C)ccc3O2)cc1` (centres undefined) it is 893 s; for `Cc1ccc(CNC(=O)c2ccc3ncnc(N4CCCCC4)c3c2)o1` it is 637 s.

`O=C(NN1CCCCC1)NN1CCCCC1`: the RP-LC retention time stood at 626 s. The figure for `CC(=O)N1CCN(c2nc3c(s2)CC(C(=O)N2CCC(C)CC2)CC3)CC1` (centres undefined) is 537 s; for `COC(=O)c1ccc(NC(=O)c2sc(-c3cn(C(C)C)c4ncccc34)nc2C)cc1` it is 1090 s; for `COc1cc(OC)cc(-c2nnc(Cc3nc(-c4cccc(C)c4)no3)o2)c1` it is 1080 s. The figure for `Cc1nc(-c2cc(S(=O)(=O)NCC(=O)N3CCN(c4ccccc4)CC3)c(C)s2)no1` is 896 s; for `COc1ccc(-c2nc(-c3cn(Cc4ccc(F)cc4)nn3)no2)cc1OC` it is 914 s.

`O=C(Nc1nc(-c2ccc3c(c2)OCCO3)cs1)c1ccc2ncsc2c1` had an RP-LC retention time of 857 s. `Cc1oc2ccn(Cc3ccccc3F)c(=O)c2c1C(=O)NCc1cc(F)cc(F)c1` gave an RP-LC retention time of 827 s. Then `COc1cccc(Oc2nccnc2N2CCC(C(=O)N3CCN(c4ccccn4)CC3)CC2)c1`, with 658 s; and `CCSc1nnc(-c2nn(C)c3c2CN(S(=O)(=O)Cc2ccccc2F)CC3)n1CC`, with 905 s. The figure for `CNC(=O)c1noc([C@@H]2CC(F)(F)CN2Cc2cccn2C)n1` is 590 s. Then `COc1ccc(NC(=O)c2cn3c(n2)CSCC3)cc1OC`, with 631 s; and `Cc1noc(-c2ccc(OC3CN(C(=O)NC4CCCC4)C3)cc2)n1`, with 801 s. `O=C(Nc1ccc(F)c(Cl)c1)N1CCN(CCn2c(-c3ccncc3)nc3cccnc32)CC1` had an RP-LC retention time of 627 s. The figure for `Cc1nc2n(c(=O)c1C)CCN2CC(=O)NCc1ccccc1Cl` is 652 s. The figure for `CN1C(=O)CO[C@@H](C(=O)Nc2ccc(F)cc2F)[C@@H]1c1ccccc1` is 766 s. Then `CCCn1cc(S(=O)(=O)Nc2ccc(C#N)cc2)c2cccnc21`, with 844 s; and `CCOC(=O)c1c(S(=O)(=O)N2CCC(C(=O)NC3CCCCCC3)CC2)c(C)n(C)c1C`, with 877 s; and `O=S(=O)(c1ccc2c(c1)OCCO2)N1CCN(S(=O)(=O)C2CC2)CC1`, with 762 s. Molecule `Cc1csc(NC(=O)c2sc3nc(-c4cccc([N+](=O)[O-])c4)cn3c2C)n1` gave an RP-LC retention time of 800 s. The figure for `O=C(CSc1nc(=O)n2cc(Cl)ccc2n1)Nc1ccc(OC(F)(F)F)cc1` is 820 s; for `Fc1ccc(C2Cn3nnc(-c4nc(-c5ccccc5)no4)c3CO2)cc1` (centres undefined) it is 1120 s. The figure for `Cc1ccc(Oc2nccn3c(=O)n(CC(=O)NCCCc4ccccc4)nc23)cc1` is 928 s; for `CCS(=O)(=O)N1CCCc2cc(C(=O)NCCC3=CCCCC3)ccc21` it is 987 s; for `Cn1ncc2c(Nc3cccc(Cl)c3)nc(N3CCCC3)nc21` it is 978 s. Then `Cc1cccc(NS(=O)(=O)c2cc3c(s2)CCN(C(=O)C2CC2)C3)c1`, with 849 s; and `NC(=O)c1ccccc1NC(=O)C1CCN(C(=O)c2ccccc2F)CC1`, with 669 s. `CNC(=O)N1CCc2c(c(-c3nc(-c4ccc(F)cc4)no3)nn2C)C1`: the RP-LC retention time came to 723 s. The molecule `CC(C)n1cnc2ccc(-c3noc(-c4cccs4)n3)cc21` came in with an RP-LC retention time of 746 s. Then `CCCS(=O)(=O)N1CCC2(CC1)C(=O)N(c1cccc(F)c1)C2c1ccccc1` (centres undefined), with 1120 s; and `Cc1c(Cl)cccc1NC(=O)NCCc1cn(CC(C)C)c2ncccc12`, with 902 s; and `COc1ccccc1-c1nc(Cc2noc(-c3ccccc3F)n2)c(C)o1`, with 1020 s.

Regarding `CCc1ccc(NC(=O)Cn2nc3nc(N4CCCC4)ccn3c2=O)cc1`, the RP-LC retention time turned out to be 678 s.

As for `Cc1ccc2c(c1)N(C)N=C(C(=O)N1CCCCCC1)S2(=O)=O`, the RP-LC retention time turned out to be 839 s. The figure for `O=C1CS(=O)C2(CCN(S(=O)(=O)Cc3ccccc3)CC2)N1CC1CC1` (centres undefined) is 713 s. The figure for `COc1ccc(-c2nnc(-c3cccnc3NCCC3=CCCCC3)o2)cc1` is 1330 s; for `Cc1ccc2c(Nc3ccc(F)cc3)c(C(=O)N3CCCC3)cnc2n1` it is 594 s.

Values taken from the METLIN SMRT retention time set (Domingo-Almenara et al. 2019).
